These results are taken from patent publication US11458138B2 (Novartis AG, priority 2017, dated 2022).

The test system of assay [1] is limbal stem cells (LSCs). The assay can be described thus: Immunolabelling of LSC markers DeltaN-p63 alpha/beta/gamma, ABCG2, C/EBP delta. The settings on record: vs cells cultured in DMSO. In kind it is cell-based, human. An excerpt:
In contrast, cells cultured in the presence of LATS inhibitors express markers such as DeltaN-p63 alpha/beta/gamma, ABCG2 and C/EBP delta, normally expressed by LSCs.
(3) The cells express one or more of ABCB5, ABCG2, and C/EBPδ. The expression of ABCB5, ABCG2, and C/EBPδ may be estimated by standard techniques known in the art, such as for example immunohistochemistry and quantitative RT-PCR.

In assay [2] the test system is limbal stem cells (LSCs). Put plainly: Differentiation of expanded LSCs into corneal epithelium cells (p63alpha / keratin 12). In kind it is cell-based, human. The settings on record: transferred to conditions that enable differentiation. An excerpt: Shown are views where the transition from the p63alpha-positive cell identity to the keratin-12 identity are occurring.
These characteristics can be observed by immunohistochemistry or FACS.

For assay [3], the system named is YAP translocation in Corneal Endothelial Cells (CECs). The assay can be described thus: YAP nuclear translocation in Corneal Endothelial Cells (CECs). Format: cell-based, human.
The test system of assay [4] is YAP phosphorylation in CECs. The assay can be described thus: YAP dephosphorylation in CECs by Western blot. Format: cell-based, human. The settings on record: within one hour of treatment, normalized to beta-actin and total YAP. An excerpt:
As shown in FIG. 15a by Western blot; FIG. 15b: graph showing phosphorylated YAP levels normalized to beta-actin; and FIG. 15c: graph showing phosphorylated YAP levels normalized to total YAP.
In general terms: Immunoblotting shows a protein as a band on a membrane.

The next assay relates to YAP in human LSCs. The assay can be described thus: Intracellular YAP distribution in limbal epithelial cells (LSCs). Format: cell-based. The following applies: 10 micromolar, 24 hours, vs DMSO. Here is the method: Cells obtained as described in Example B1 were plated in glass-bottom black wall 24-well dishes in limbal epithelium cell culture medium (DMEM F12 supplemented with 10% human serum and 1.3 mM calcium chloride) supplemented with LATS inhibitor compound example no. […] Cells were cultured under these conditions for 24 hours at 37° C. in 5% CO2.
(§1) To measure the effect of the LATS inhibitors on the downstream target YAP, intracellular YAP distribution was analyzed by immunohistochemistry. Cell cultures were fixed with 4% PFA for 20 minutes, permeabilized and blocked in a blocking solution of 0.3% Triton X-100 (Sigma-Aldrich) and 3% donkey serum in PBS for 30 minutes. Cells were then labeled with primary antibody in the blocking solution for 12 hours at 4° C. Primary antibody used was anti-YAP from Santa Cruz Biotechnology. Samples were washed in PBS three times and donkey-raised secondary antibody Alexa Fluor 488 (Molecular Probes) at 1:500 dilution were applied for 30 minutes at room temperature. […] Fluorescence was observed using a Zeiss LSM 880 confocal microscope.

In assay [5] the test system is phospho-YAP (ser127) in human LSCs. Put plainly: YAP phosphorylation by western blot in LSCs. In kind it is cell-based. The settings on record: 10 micromolar, 1 hour. As for the experimental part: Cells obtained as described in Example B1 were detached from the culture dish with Accutase for 10 minutes at 37° C., cell suspensions were rinsed by centrifugation and plated in DMEM F12 supplemented with 10% human serum and 1.3 mM calcium chloride in 6-well plates (Corning) and cultured without LATS inhibitor compounds for 2-4 days.
The medium was then replaced by fresh limbal epithelium cell culture medium (DMEM F12 supplemented with 10% human serum and 1.3 mM calcium chloride) supplemented with LATS inhibitor compound example no. […] Cells were cultured under these conditions for 1 hour at 37° C. in 5% CO2.
To measure the effect of the LATS inhibitors on the downstream target YAP, the YAP phosphorylation levels were measured by western blot as follows. The cell pellets were obtained by trypsin dissociation and centrifugation and washed with PBS. The pellets were lysed with 30 microlitres of RIPA lysis buffer containing protease inhibitor cocktail (Life Technologies) for 30 minutes, with vortexing every 10 minutes. The cell debris were then pelleted at 4° C. for 15 minutes at 14 k rpm and the protein lysate was collected. Protein concentration was quantified using a micro BCA kit (Pierce). Fifteen micrograms of total protein was loaded in each well of 4-20% TGX gels (BioRad) and Western blotting was performed according to the manufacturer's instructions. […]

For a further assay, the system named is YAP in human CECs. Put plainly: Intracellular YAP distribution in corneal endothelial cells (CECs). The settings on record: 10 micromolar, 24 hours. Format: cell-based. Here is the method: Cells obtained as described in Example C1 were plated in glass-bottom black wall 24-well dishes in corneal endothelial cell culture medium (human endothelial SF (serum free) medium (Invitrogen) with human serum) supplemented with LATS inhibitor compound example no. 133 or compound example no. […] Cells were cultured under these conditions for 24 hours at 37° C. in 5% CO2.
as §1

Assay [6] concerns phospho-YAP (ser127) in human CECs. Put plainly: YAP phosphorylation by western blot in CECs. The settings on record: 10 micromolar, 1 hour. Format: cell-based. As for the experimental part:
Cells obtained as described in Example C1 were detached from the culture dish with 1 mg/ml collagenase for 15 minutes at 37° C., cell suspensions were rinsed by centrifugation and plated in corneal endothelial cell culture medium (human endothelial SF medium (Invitrogen) with human serum) in 6-well plates (Corning) and cultured for 2 to 4 days. The medium was then replaced by fresh corneal endothelial cell culture medium (human endothelial SF medium (Invitrogen) with human serum) supplemented with LATS inhibitor, compound example no. […] Cells were cultured under these conditions for 1 hour at 37° C. in 5% CO2.
Cell pellets were obtained by trypsin dissociation and centrifugation and washed with PBS. The pellets were lysed with […] of RIPA lysis buffer containing protease inhibitor cocktail (Life Technologies) for 30 minutes, with vortexing every 10 minutes. The cell debris were then pelleted at 4° C. for 15 minutes at 14k rpm and the protein lysate was collected. Protein concentration was quantified using a micro BCA kit (Pierce). Fifteen (15) micrograms of total protein was loaded in each well of 4-20% TGX gels (BioRad) and Western blotting was performed according to the manufacturer's instructions. […] Membranes were stained with HRP-conjugated secondary antibodies, rinsed and imaged using a ChemiDoc system (Biorad) according to the manufacturer's instructions.

For assay [7], the system named is human corneal endothelial cells (CECs). Put plainly: Human corneal endothelial cell population expansion, cell confluence (Incucyte). Format: cell-based. The settings on record: 10 micromolar, 10 days. As for the experimental part:
Cells obtained as described in Example C1 were detached from the culture dish with 100 microlitres of Accutase (ThermoFisher) for 10 minutes at 37° C., cell suspensions were rinsed by centrifugation and plated in corneal endothelial cell culture medium (human endothelial SF medium (Invitrogen) with human serum) in 6-well plates (Corning) supplemented with LATS inhibitor compound example no. […] Cells were cultured at 37° C. in 5% CO2.
To measure cell proliferation, an Incucyte machine was used following the manufacturer's instructions (Essen Biosciences) to perform real-time quantitative live-cell analysis of cell confluence every 3 hours for 10 days.

Turning to `CC(C)(O)CC(C)(C)Nc1nc(-c2ccncc2)nc2cnccc12` [Example 49, 2,4-dimethyl-4-{[2-(pyridin-4-yl)pyrido[3,4-d]pyrimidin-4-yl]amino}pentan-2-ol], the “expression of LSC markers DeltaN-p63 alpha/beta/gamma, ABCG2 and C/EBP delta” value in the assay on limbal stem cells (LSCs) [1] was “express typical markers of LSCs”. Moreover, the “differentiation of expanded LSCs into corneal epithelium cells (keratin 12)” value in the assay on limbal stem cells (LSCs) [2] is recorded as “can differentiate into corneal epithelium cells”. Further, in assay [3], the “translocation of YAP into the nucleus in CECs” value is “induce translocation of YAP into the nucleus”. The “YAP dephosphorylation in CECs” value in [4] is on record as “induce YAP dephosphorylation”. For the same molecule, the “YAP immunostaining in the nucleus of LSCs” value with YAP in human LSCs is given as “stronger in the nucleus”. Besides, the “YAP phosphorylation levels in human LSCs (western blot)” value in assay [5] is recorded as “reduction in YAP phosphorylation levels”. Moreover, in the assay on YAP in human CECs, the “YAP immunostaining in CECs” value is “stronger”. Also, the “YAP phosphorylation levels in human CECs (western blot)” value in assay [6] is reported as “reduction in YAP phosphorylation levels in human CECs”. For the same molecule, the “Proliferation of human CECs (percentage confluence over time)” value in assay [7] was “could activate proliferation in these cells”.

For `Cc1n[nH]cc1-c1nc(NC2(C)CC2)c2ccncc2n1` [Example 133, 2-(3-methyl-1H-pyrazol-4-yl)-N-(1-methylcyclopropyl)pyrido[3,4-d]pyrimidin-4-amine], in the assay with limbal stem cells (LSCs) [1], the “expression of LSC markers DeltaN-p63 alpha/beta/gamma, ABCG2 and C/EBP delta” value is “express typical markers of LSCs”. The “translocation of YAP into the nucleus in CECs” value in assay [3] is recorded as “induce translocation of YAP into the nucleus”. For the same molecule, the “YAP dephosphorylation in CECs” value in [4] was “induce YAP dephosphorylation”. The “YAP immunostaining in the nucleus of LSCs” value with YAP in human LSCs is on record as “stronger in the nucleus”. In assay [5], the “YAP phosphorylation levels in human LSCs (western blot)” value is “reduction in YAP phosphorylation levels”. For the same molecule, the “YAP immunostaining in CECs” value in the assay on YAP in human CECs is recorded as “stronger”. Also, in [6], the “YAP phosphorylation levels in human CECs (western blot)” value was “reduction in YAP phosphorylation levels in human CECs”. In addition, the “Proliferation of human CECs (percentage confluence over time)” value in assay [7] is given as “could activate proliferation in these cells”.

As for `CC(C)(C)Nc1cc(-c2ccncc2)nc2cnccc12` [Example 261, N-(tert-butyl)-2-(pyridin-4-yl)-1,7-naphthyridin-4-amine], in the assay with limbal stem cells (LSCs) [2], the “differentiation of expanded LSCs into corneal epithelium cells (keratin 12)” value is on record as “can differentiate into corneal epithelium cells”.
